Measured values reported in patent publication US20150265572A1, “INJECTABLE CANCER COMPOSITIONS” (GENSPERA, INC., priority 2012, published 2015).
Each block holds one compound with its values, some of them ahead of it. Starred links: 1 amine or outer side, 2 acyl side, 3 side chain; linkers in the order of their positions; H or OH if unused. Non-standard residues stand in square brackets, D forms with d. Residues, ends and D or L forms follow the SMILES beside them. γGlu = O=C(O)[C@H](CCC(=O)[*:2])N[*:1]

Experiments:
[1] = Stability to hydrolysis in human plasma; type: in vitro ADME
[2] = Stability to hydrolysis in mouse plasma; type: in vitro ADME
[3] = Stability of peptides in serum; type: in vitro ADME
[4] = system: TSU prostate cancer cell line; experiment: LD50 for killing against TSU prostate cancer cell line; type: cell-based, human; conditions: TSU prostate cancer cell line (non-PSMA producing)
Text: The prodrugs are hydrolyzed by PSMA and release the corresponding Asp- or Glu-containing thapsigargin analogs, or the thapsigargin analog itself, and also lack potent cytotoxicity when not metabolized by PSMA. Non-PSMA producing TSU-Pr1 human prostate cancer cell line is exposed to each of the PSMA prodrugs at doses that are approximately 50-times the LD50 for the corresponding free thapsigargin analog.

stability to hydrolysis in plasma [1]: completely stable
stability to hydrolysis in plasma [2]: completely stable
Compound: N[C@@H](CC(=O)O)C(=O)N[C@@H](CCC(=O)N[C@@H](CCC(=O)N[C@@H](CC(=O)O)C(=O)N[C@@H](CCC(=O)O)C(=O)O)C(=O)O)C(=O)O [Asp-Glu*Glu*Asp-Glu] (H-D[γGlu][γGlu]DE-OH; N-terminus and C-terminus assumed)

stability in serum [3]: high stability
Compound: NC(=O)CC[C@H](NC(=O)[C@H](CC(=O)O)NC(=O)CC[C@H](NC(=O)CC[C@H](NC(=O)CC[C@H](N)C(=O)O)C(=O)O)C(=O)O)C(=O)O [Glu*Glu*Glu*Asp-Gln] ({γGlu-γGlu-γGlu}-Asp-Gln-OH; N-terminus and C-terminus assumed)

Compound: 12ADT-Glu [Composition 12ADT-Glu]
LD50 value for killing [4]: approximately 50 nM

stability in serum [3]: high stability
Compound: N[C@@H](CCC(=O)N[C@@H](CCC(=O)N[C@@H](CCC(=O)N[C@@H](CC(=O)O)C(=O)N[C@@H](CCC(=O)O)C(=O)O)C(=O)O)C(=O)O)C(=O)O [Glu*Glu*Glu*Asp-Glu] ({γGlu-γGlu-γGlu}-Asp-Glu-OH; N-terminus and C-terminus assumed)
